Measured values reported in PubChem BioAssay AID1963868 (Molecular Pharmacology Branch, DTP, NCI, 2024).
pIC50: −log10 of the molar value.

Tested on: KRAS PDC tumor spheroids (HUVEC+MSC), viability
Experiment: Anticancer human tumor 254851-301-R-J1-PDC patient-derived colon carcinoma cell line growth inhibition [KRAS2]
Settings: for viability, T/C: stronger effect = lower value
Method in brief: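 Combination screen of spheroid viability in tumor-cell co-cultures with endothelial (HUVEC) and mesenchymal stem cell stroma. Each agent was tested in half-log dilutions, topping at clinical Cmax or at 10 microM without a known Cmax.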

[1] = curve of first compound, second compound 0.0316 µM
[2] = curve of first compound, second compound 0.1 µM
[3] = curve of first compound, second compound 0.316 µM
[4] = curve of first compound, second compound 1 µM
[5] = curve of first compound, second compound 3.16 µM
[6] = second compound 0.0316 µM, first compound 0.01 µM
[7] = second compound 0.0316 µM, first compound 0.0316 µM
[8] = second compound 0.0316 µM, first compound 0.1 µM
[9] = second compound 0.1 µM, first compound 0.01 µM
[10] = second compound 0.1 µM, first compound 0.0316 µM
[11] = second compound 0.1 µM, first compound 0.1 µM
[12] = second compound 0.316 µM, first compound 0.01 µM
[13] = second compound 0.316 µM, first compound 0.0316 µM
[14] = second compound 0.316 µM, first compound 0.1 µM
[15] = second compound 1 µM, first compound 0.01 µM
[16] = second compound 1 µM, first compound 0.0316 µM
[17] = second compound 1 µM, first compound 0.1 µM
[18] = second compound 3.16 µM, first compound 0.01 µM
[19] = second compound 3.16 µM, first compound 0.0316 µM
[20] = second compound 3.16 µM, first compound 0.1 µM
[21] = second compound 0.1 µM, first compound 0.316 µM
[22] = second compound 0.1 µM, first compound 1 µM
[23] = second compound 0.1 µM, first compound 3.16 µM
[24] = second compound 0.316 µM, first compound 0.316 µM
[25] = second compound 0.316 µM, first compound 1 µM
[26] = second compound 0.316 µM, first compound 3.16 µM
[27] = second compound 1 µM, first compound 0.316 µM
[28] = second compound 1 µM, first compound 1 µM
[29] = second compound 1 µM, first compound 3.16 µM
[30] = second compound 3.16 µM, first compound 0.316 µM
[31] = second compound 3.16 µM, first compound 1 µM
[32] = second compound 3.16 µM, first compound 3.16 µM
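Further: spheroids exposed to compounds for seven days before readout.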
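Wherever viability, T/C is given: 100% = DMSO vehicle control luminescence of the spheroids.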

Structure (SMILES): CN(C)C/C=C/C(=O)Nc1cc2c(Nc3ccc(F)c(Cl)c3)ncnc2cc1O[C@H]1CCOC1 + C=CC(=O)N1CCN(c2nc(OCC3CCCN3C)nc3c2CCN(c2cccc4cccc(C)c24)C3)CC1CC#N
- pIC50 [1]: < 7.00
- pIC50 [2]: < 7.00
- pIC50 [3]: < 7.00
- pIC50 [4]: < 7.00
- pIC50 [5]: < 7.00
- viability, T/C (second compound 0.0316 µM, first compound 0.000316 µM): 97.2%
- viability, T/C (second compound 0.0316 µM, first compound 0.001 µM): 99.7%
- viability, T/C (second compound 0.0316 µM, first compound 0.00316 µM): 94.7%
- viability, T/C [6]: 96.7%
- viability, T/C [7]: 97.9%
- viability, T/C [8]: 78.7%
- viability, T/C (second compound 0.1 µM, first compound 0.000316 µM): 105%
- viability, T/C (second compound 0.1 µM, first compound 0.001 µM): 101%
- viability, T/C (second compound 0.1 µM, first compound 0.00316 µM): 88.5%
- viability, T/C [9]: 92.6%
- viability, T/C [10]: 97.7%
- viability, T/C [11]: 69.7%
- viability, T/C (second compound 0.316 µM, first compound 0.000316 µM): 101%
- viability, T/C (second compound 0.316 µM, first compound 0.001 µM): 97.8%
- viability, T/C (second compound 0.316 µM, first compound 0.00316 µM): 92.6%
- viability, T/C [12]: 75%
- viability, T/C [13]: 89.3%
- viability, T/C [14]: 74.5%
- viability, T/C (second compound 1 µM, first compound 0.000316 µM): 104%
- viability, T/C (second compound 1 µM, first compound 0.001 µM): 97.9%
- viability, T/C (second compound 1 µM, first compound 0.00316 µM): 91.4%
- viability, T/C [15]: 95.9%
- viability, T/C [16]: 96.7%
- viability, T/C [17]: 82.3%
- viability, T/C (second compound 3.16 µM, first compound 0.000316 µM): 67.5%
- viability, T/C (second compound 3.16 µM, first compound 0.001 µM): 61.5%
- viability, T/C (second compound 3.16 µM, first compound 0.00316 µM): 51.8%
- viability, T/C [18]: 54.6%
- viability, T/C [19]: 62.6%
- viability, T/C [20]: 52.1%

Structure (SMILES): CC(=O)OC12COC1CC(O)C1(C)C(=O)C(O)C3=C(C)C(OC(=O)C(O)C(NC(=O)OC(C)(C)C)c4ccccc4)CC(O)(C(OC(=O)c4ccccc4)C21)C3(C)C (configuration not stated) + C=CC(=O)N1CCN(c2nc(OCC3CCCN3C)nc3c2CCN(c2cccc4cccc(C)c24)C3)CC1CC#N
- pIC50 [1]: 6.69
- pIC50 [2]: 6.70
- pIC50 [3]: 6.79
- pIC50 [4]: 6.85
- pIC50 [5]: 6.69
- viability, T/C [6]: 102%
- viability, T/C [7]: 95.9%
- viability, T/C [8]: 69.3%
- viability, T/C (second compound 0.0316 µM, first compound 0.316 µM): 38.4%
- viability, T/C (second compound 0.0316 µM, first compound 1 µM): 29%
- viability, T/C (second compound 0.0316 µM, first compound 3.16 µM): 26.1%
- viability, T/C [9]: 99.1%
- viability, T/C [10]: 91.2%
- viability, T/C [11]: 61.4%
- viability, T/C [21]: 43%
- viability, T/C [22]: 27.3%
- viability, T/C [23]: 25.6%
- viability, T/C [12]: 98.1%
- viability, T/C [13]: 88%
- viability, T/C [14]: 60.8%
- viability, T/C [24]: 35.4%
- viability, T/C [25]: 26.5%
- viability, T/C [26]: 24.3%
- viability, T/C [15]: 93%
- viability, T/C [16]: 94.5%
- viability, T/C [17]: 56.2%
- viability, T/C [27]: 34%
- viability, T/C [28]: 24.4%
- viability, T/C [29]: 22.9%
- viability, T/C [18]: 94.3%
- viability, T/C [19]: 86.7%
- viability, T/C [20]: 69.1%
- viability, T/C [30]: 38.5%
- viability, T/C [31]: 24.2%
- viability, T/C [32]: 23.7%

Structure (SMILES): CC(=O)OC12COC1CC(O)C1(C)C(=O)C(O)C3=C(C)C(OC(=O)C(O)C(NC(=O)OC(C)(C)C)c4ccccc4)CC(O)(C(OC(=O)c4ccccc4)C21)C3(C)C (configuration not stated) + CNCc1ccccc1-c1csc(C(C)Nc2nc(C)nc3cc(OC)c(OC)cc23)c1
- pIC50 [2]: 6.75
- pIC50 [3]: 6.90
- pIC50 [4]: 6.74
- pIC50 [5]: 7.64
- pIC50 (curve of first compound, second compound 10 µM): > 8.00
- viability, T/C [9]: 101%
- viability, T/C [10]: 86.3%
- viability, T/C [11]: 62.6%
- viability, T/C [21]: 37.7%
- viability, T/C [22]: 26.1%
- viability, T/C [23]: 25.3%
- viability, T/C [12]: 90%
- viability, T/C [13]: 79.9%
- viability, T/C [14]: 55.7%
- viability, T/C [24]: 30.4%
- viability, T/C [25]: 25.5%
- viability, T/C [26]: 25.4%
- viability, T/C [15]: 81.3%
- viability, T/C [16]: 80.5%
- viability, T/C [17]: 61.5%
- viability, T/C [27]: 39.8%
- viability, T/C [28]: 25.3%
- viability, T/C [29]: 24%
- viability, T/C [18]: 77%
- viability, T/C [19]: 38.9%
- viability, T/C [20]: 9.76%
- viability, T/C [30]: 13.6%
- viability, T/C [31]: 0.92%
- viability, T/C [32]: 23.3%
- viability, T/C (second compound 10 µM, first compound 0.01 µM): 1.07%
- viability, T/C (second compound 10 µM, first compound 0.0316 µM): 0.14%
- viability, T/C (second compound 10 µM, first compound 0.1 µM): 1.91%
- viability, T/C (second compound 10 µM, first compound 0.316 µM): 0.55%
- viability, T/C (second compound 10 µM, first compound 1 µM): 24.2%
- viability, T/C (second compound 10 µM, first compound 3.16 µM): 0.21%

Structure (SMILES): Cn1ncnc1[C@H]1c2n[nH]c(=O)c3cc(F)cc(c23)N[C@@H]1c1ccc(F)cc1
- viability, T/C (compound 0.000316 µM): 102% [middle of 5 runs]
- viability, T/C (compound 0.001 µM): 101% [middle of 5 runs]
- viability, T/C (compound 0.00316 µM): 99.2% [middle of 5 runs]
- viability, T/C (compound 0.01 µM): 98.7% [middle of 5 runs]
- viability, T/C (compound 0.0316 µM): 101% [middle of 5 runs]
- viability, T/C (compound 0.1 µM): 97.6% [middle of 5 runs]
- pIC50 (curve of compound): < 7.00
